# Measured values: PubChem BioAssay AID743428 (The Scripps Research Institute Molecular Screening Center, 2014)
# Calls of active or inactive are those of the source. No rule for the calls is given here.
# Target: Sphingosine 1-phosphate receptor 2 (Homo sapiens) (UniProt O95136)
# Assay: S1P2 receptor antagonists, late-stage follow-up, counter-screen for S1PR3 antagonist project, cell-based, FRET, dose response (AID 743428)
# Details: S1P2-expressing cells, FRET reporter, antagonist counterscreen
# Sphingosine 1-phosphate receptor 2 (Homo sapiens), sequence (O95136 whole entry, looked up): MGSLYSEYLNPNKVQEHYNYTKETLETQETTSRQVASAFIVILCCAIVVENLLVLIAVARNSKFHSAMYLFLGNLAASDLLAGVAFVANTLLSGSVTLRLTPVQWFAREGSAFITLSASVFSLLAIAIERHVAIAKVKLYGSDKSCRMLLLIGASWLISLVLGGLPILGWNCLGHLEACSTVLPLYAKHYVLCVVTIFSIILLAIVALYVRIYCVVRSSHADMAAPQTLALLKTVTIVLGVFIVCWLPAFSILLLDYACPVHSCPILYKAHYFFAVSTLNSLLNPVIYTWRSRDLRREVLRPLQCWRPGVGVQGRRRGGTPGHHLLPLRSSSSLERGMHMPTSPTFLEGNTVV
row,SMILES,IC50
1,O=C(c1cccc(Cl)c1)N(CCO)C(c1ccc(Cl)c(Cl)c1)c1nc(-c2ccccc2)no1 (configuration not stated),inactive
2,O=C(NC(c1cccc(Cl)c1)c1nc(-c2ccccc2)no1)c1cc(Cl)cc(Cl)c1 (configuration not stated),> 50 µM (inactive)
3,COc1ccc(C(=O)NC(c2ccccc2)c2nc(-c3ccccc3)no2)cc1 (configuration not stated),> 50 µM (inactive)
4,O=C(NC(c1ccc(Cl)cc1)c1nc(-c2ccccn2)no1)c1cccc(Cl)c1 (configuration not stated),> 50 µM (inactive)
5,O=C(NC(c1ccc(Cl)cc1)c1nc(-c2ccccc2)no1)c1cccc(Cl)c1 (configuration not stated),> 50 µM (inactive)
6,CCc1ccc(C(NC(=O)c2cccc(Cl)c2)c2nc(-c3ccccc3)no2)cc1 (configuration not stated),> 50 µM (inactive)
7,O=C(NC(c1ccc(Cl)c(Cl)c1)c1nc(-c2ccccc2)no1)c1cccc(Cl)c1 (configuration not stated),> 50 µM (inactive)
8,O=C(NC(c1ccccc1)c1nc(-c2ccccc2)no1)c1ccc(Cl)cc1 (configuration not stated),> 50 µM (inactive)
9,O=C(NC(c1ccc(Cl)cc1)c1nc(-c2ccccc2)no1)c1cccc(Br)c1 (configuration not stated),> 50 µM (inactive)
10,O=C(NC(c1ccccc1)c1nc(-c2ccccc2)no1)c1cccc(Cl)c1 (configuration not stated),> 50 µM (inactive)
11,O=C(NC(c1ccc(Cl)cc1)c1nc(-c2ccccc2)no1)c1ccc(Cl)c(Cl)c1 (configuration not stated),> 50 µM (inactive)
12,O=C(NC(c1ccc(Cl)c(Cl)c1)c1nc(-c2ccccc2)no1)c1ccc(Cl)c(Cl)c1 (configuration not stated),> 50 µM (inactive)
13,O=C(NC(c1nc(-c2ccccc2)no1)C1CCOCC1)c1ccc(Cl)c(Cl)c1 (configuration not stated),> 50 µM (inactive)
14,O=C(NC(c1ccccc1)c1nc(-c2ccccc2)no1)c1cccc(Br)c1 (configuration not stated),> 50 µM (inactive)
15,O=C(NC(c1nc(-c2ccccc2)no1)C1CCCCC1)c1ccc(Cl)c(Cl)c1 (configuration not stated),> 50 µM (inactive)
16,O=C(NC(c1ccc(Cl)cc1)c1nc(-c2cccc(Cl)c2)no1)c1cccc(Cl)c1 (configuration not stated),> 50 µM (inactive)
17,O=C(NC(c1ccccc1)c1nc(-c2ccccc2)no1)c1cccc(Cl)n1 (configuration not stated),> 50 µM (inactive)
18,O=C(NC(c1ccc(Cl)c(Cl)c1)c1nc(-c2ccccc2)no1)c1ccccc1 (configuration not stated),> 50 µM (inactive)
19,N#Cc1ccc(C(=O)NC(c2ccc(Cl)c(Cl)c2)c2nc(-c3ccccc3)no2)cc1 (configuration not stated),> 50 µM (inactive)
20,O=C(NC(c1ccc(Cl)cc1)c1nc(-c2ccccc2)no1)c1ccc(Cl)c(Br)c1 (configuration not stated),> 50 µM (inactive)
21,O=C(NC(c1ccc(Cl)c(Cl)c1)c1nc(-c2ccccc2)no1)c1ccc(Cl)cc1 (configuration not stated),> 50 µM (inactive)
22,Cc1ccc(C(=O)NC(c2ccccc2)c2nc(-c3ccccc3)no2)cc1 (configuration not stated),> 50 µM (inactive)
23,O=C(NC(c1ccc(Br)cc1)c1nc(-c2ccccc2)no1)c1ccc(Cl)c(Cl)c1 (configuration not stated),> 50 µM (inactive)
24,O=C(NC(Cc1ccccc1)c1nc(-c2ccccc2)no1)c1cccc(Cl)c1 (configuration not stated),inactive
25,Cc1ccc(C(NC(=O)c2cccc(Cl)c2)c2nc(-c3ccccc3)no2)cc1 (configuration not stated),> 50 µM (inactive)
26,O=C(NC(c1cccc(Cl)c1)c1nc(-c2ccccc2)no1)c1ccc(Cl)c(Cl)c1 (configuration not stated),> 50 µM (inactive)
27,O=C(NC(c1cccc(Cl)c1)c1nc(-c2ccccc2)no1)c1cccc(Cl)c1 (configuration not stated),> 50 µM (inactive)
